Source: patent US11543404B2, “Nerve cell device and method for evaluating neural activity” (Stem Cell & Device Laboratory, Inc., priority 2017, dated 2023)

Columns and labels:
[1] = system: 253G1 hiPS cell-derived neurons; assay: MEA measurement of drug response (number of spikes) of 253G1 hiPS cell-derived neurons; format: cell-based, human; details: 4-AP final concentration 100 μM
Procedure: iPS cell-derived neurons (253G1 hiPS cell-derived neuron or XCL-1 NEURONS (XCell Science, catalog number XN-001-1V)) were seeded on the oriented PLGA fiber sheet as a cell scaffold at 13×10^5 cells/cm^2. 253G1 hiPS cell-derived neurons were cultured in N2B27 medium with or without 20% ACM, and the XCL-1 NEURONS are cultured in BrainPhys (registered trademark) Neuronal Medium (05792, STEMCELL TECHNOLOGIES) with or without 20% ACM in an incubator at 5% CO2 and 37° C. for 4 or 6 weeks. The fiber sheet was placed on an MEA probe (MED64 system, Alpha MED Scientific Inc.), and made the cells contact with the electrodes of MEA probe to measure neural activity (spikes). As a control, neurons were similarly seeded directly on a probe (electrodes) based on a conventional method, and cultured in an incubator at 5% CO2 and 37° C. for 4 or 6 weeks. The obtained results were compared with those given by a conventional method (direct seeding to a probe). A larger number of spikes were detected in 253G1 hiPS cell-derived neurons on the fiber sheet at 4-week culture (FIG. 7a). […] In the measurement system, 4-aminopyridine (4-AP), known to have a function of inhibiting various potassium channels in neurons and maintaining neuronal action potential, was added to the neurons cultured for 4 weeks at a final concentration of 100 μM, and then the spikes were measured. As a result, the number of spikes was increased both in the control group and in the fiber sheet group by the addition of 4-aminopyridine, and appropriate drug response was also confirmed (FIG. 7a).

[2] = system: iPS cell-derived neurons XCL-1 NEURONS; assay: MEA measurement of drug response (spikes, bursts, synchronous bursts) of XCL-1 NEURONS on oriented PLGA fiber sheet; format: cell-based, human; details: 4-AP final concentration 100 μM
Procedure: iPS cell-derived neurons (253G1 hiPS cell-derived neuron or XCL-1 NEURONS (XCell Science, catalog number XN-001-1V)) were seeded on the oriented PLGA fiber sheet as a cell scaffold at 13×10^5 cells/cm^2. 253G1 hiPS cell-derived neurons were cultured in N2B27 medium with or without 20% ACM, and the XCL-1 NEURONS are cultured in BrainPhys (registered trademark) Neuronal Medium (05792, STEMCELL TECHNOLOGIES) with or without 20% ACM in an incubator at 5% CO2 and 37° C. for 4 or 6 weeks. The fiber sheet was placed on an MEA probe (MED64 system, Alpha MED Scientific Inc.), and made the cells contact with the electrodes of MEA probe to measure neural activity (spikes). As a control, neurons were similarly seeded directly on a probe (electrodes) based on a conventional method, and cultured in an incubator at 5% CO2 and 37° C. for 4 or 6 weeks. The obtained results were compared with those given by a conventional method (direct seeding to a probe). A larger number of spikes were detected in 253G1 hiPS cell-derived neurons on the fiber sheet at 4-week culture (FIG. 7a). […] In the measurement system, 4-aminopyridine (4-AP), known to have a function of inhibiting various potassium channels in neurons and maintaining neuronal action potential, was added to the neurons cultured for 4 weeks at a final concentration of 100 μM, and then the spikes were measured. As a result, the number of spikes was increased both in the control group and in the fiber sheet group by the addition of 4-aminopyridine, and appropriate drug response was also confirmed (FIG. 7a). […] The cells were cultured in BrainPhys (registered trademark) Neuronal Medium (05792, STEMCELL TECHNOLOGIES) containing 20% ACM in an incubator at 5% CO2 and 37° C. for 2, 4, and 6 weeks. The obtained cell sheet (nerve cell device) was placed on an MEA probe (MED64 system, Alpha MED Scientific Inc.) and made the cells contact with the electrodes of MEA probe to measure neural activity (spikes and bursts). In the measurement system, 4-aminopyridine (4-AP), known to maintain a neural action potential was added at a final concentration of 100 μM to examine the drug response of neurons. MED 64 Burstscope (Alpha MED Scientific Inc.) was used for analyzing neural activity. About the cell sheet obtained by culturing for 4 weeks, the result of analyzing the number of spikes is shown in FIG. 8a, and the result of analyzing the number of synchronous bursts is shown in FIG. 8b. […] Furthermore, the result of analyzing neural activity by raster plots for a cell sheet obtained by culturing for 6 weeks is shown in FIG. 8c.

[3] = seeded at 24×10^5 cells/cm^2 on oriented PLGA fiber sheet, 20% ACM, cultured 4 weeks

Nc1ccncc1 [4-aminopyridine]
increase in the number of spikes ([1]; control group cultured directly on the MEA probe, 4 weeks): 156%
increase in the number of spikes ([1]; fiber sheet group cultured in medium with 20% ACM, 4 weeks): 194%
increase in the number of spikes ([1]; neurons on oriented PLGA fiber sheet (fiber sheet group), cultured 4 weeks): 167%
increase in the number of spikes [2, 3]: 499%
increase in the number of synchronous bursts [2, 3]: 375%
number of spikes and synchronous bursts (raster plots) ([2]; seeded at 24×10^5 cells/cm^2 on oriented PLGA fiber sheet, 20% ACM, cultured 6 weeks): remarkable increase
increase in the number of bursts ([2]; seeded on fiber sheet at 12×10^5 cells/cm^2, cultured 6 weeks in medium with ACM): 2.6 fold
